Values of other authors as cited in patent US20080161587A1, “Crystallization method for purification of calcipotriene” (Teva Pharmaceuticals USA, Inc., priority 2002, published 2008).

solubility in highly apolar solvents (highly a polar solvents (e.g. hydrocarbons)): essentially insoluble
solubility in alcoholic solvents (methanol, ethanol, and isopropanol (IPA)): highly soluble
Structure (SMILES): C=C1/C(=C\C=C2/CCC[C@]3(C)[C@@H]([C@H](C)/C=C/[C@@H](O)C4CC4)CC[C@@H]23)C[C@@H](O)C[C@@H]1O [calcipotriene, (5Z, 7E, 22E, 24S)-24-cyclopropyl-9,10-secochola-5,7,10(19), 22-tetraene-1α, 3β, 24-triol]
solubility of calcipotriene in methyl formate (solvent methyl formate): about 1 g calcipotriene/150 mL of methyl formate
